Reference: US6914046B1, “NF-κB activation inhibitors, and their pharmaceutical uses” (Centre National de la Recherche Scientifique, priority 1999, dated 2005)
Entries after “also recorded” stand apart in the source; their conditions may differ.

B1: HGH: human growth hormone (SEQ ID NO 2); produced by transfected U937-HGH line or recombinant exogenous HGH (Saizen, Serono) (protein, listed as Homo sapiens)
chain: MATGSRTSLLLAFGLLCLPWLQEGSAFPTIPLSRLFDNASLRAHRLHQLAFDTYQEFNPQTSLCFSESIPTPSNREETQQKSNLELLRISLLLIQSWLEPVQFLRSVFANSLVYGASDSNVYDLLKDLEEGIQTLMGRLEDGSPRTGQIFKQTYSKFDTNSHNDDALLKNYGLLYCFRKDMDKVETFLRIVQCRSVEGSCGF

What was measured:
[1] = system: human ovarian adenocartcinoma IGROV/ADR; assay: Death of adriamycine resistant IGROV/ADR cells by daunomycin with recombinant HGH; type: cell-based
Excerpt: To test the possibility of using the object of the present invention on non-lymphoid tumors, the inventors have used HGH to try to invert the “adriamycine resistant” phenotype of cells isolated from a human ovarian adenocartcinoma IGROV/ADR (Bénard J et coll., 1985, Cancer Res, 45:4970-4979).
FIG. 5: Effect of growth hormone on the apoptosis of the IGROV/ADR line, induced by daunomycin; the percentage of dead cells (IP+) is indicated on the ordinate, and different columns corresponding to the different concentrations of HGH used (0, 5, 50, 500, 1000 ng/ml); the concentrations of daunomycin are indicated on the abscissa in μM.

[2] = system: human renal carcinoma cells (RCC) HIEG; assay: Number of living RCC cells 48 h after daunomycin, flow cytometry; type: cell-based
Method: Erythropoietin (EPO), another molecule than HGH belonging to the same family of cytokines of class I, has been tested on human renal carcinoma cells (RCC) HIEG.
4.10^4 RCC cells have been transfected in a transitory manner with the help of an Effecten^R kit, or with 3 μg of plasmid carrying the gene encoding for EPO (RCC-EPO cells), or with 3 μg of a plasmid coding for the resistance to neomycin (RCC-Neo cells) as the negative control. After 48 hours, the RCC were combined with daunomycin at two different concentrations: 0.3 and 0.6 μM. The number of surviving cells was measured 48 hours later by flow cytometry (FIG. 6).
FIG. 6: Effect of erythropoietin on the apoptosis of the human renal carcinoma line HIEG, induced by daunomycin: for each of the experiments 1 and 2, the number of living cells is indicated on the ordinate, the white columns correspond to the RCC-Neo cells, the black columns correspond to the RCC-EPO cells; the concentrations of daunomycin are indicated on the abscissa in μM.

[3] = system: U937-HGH and U937-Neo cells; assay: Propidium iodide incorporation (flow cytometry) after 48 h culture with recombinant -TNF; type: cell-based, human; settings: U937-HGH line versus U937 / U937-Neo control
Excerpt: A selection gene (neomycin resistant, Neo^R) and the gene encoding for human growth hormone (HGH) have been co-transfected in the human promyeloid leukemic line U937. By comparing the transfected line U937-HGH (which produces in a constituent fashion HGH at physiologic doses), either to the parent line U937, or to a line transfected with Neo^R alone, there are observed by different methodological approaches, that the U937-HGH line dies more under the effect of the tumor necrosis factor (-TNF). This cytokine secreted by different types of immune cells has in an anti-tumor activity (Harakana, K et al., 1984, Int J Cancer, 34:263-267) and is capable of promoting the activation of NF-κB (Baeuerle P A, Henkel T, 1994, Ann Rev Immunol, 12:141-179).
The U937-HGH cells and the U937-Neo control cells have been cultured for 48 hours in the presence of increasing concentrations of recombinant -TNF. As a result of this culture, the washed cells have been incubated in the presence of propidium iodide which is incorporated in the DNA of the dead cells. These cells are analyzed by flowing cytometry. […]

NF-κB [4] = assay: Gel delay analysis of nuclear extracts for NF-κB after -TNF stimulation; type: cell-based, human; settings: U937-HGH cells versus U937 control cells, -TNF or -TNF and cycloheximide
Excerpt: On this gel were deposited nuclear extracts from the U937-HGH and U937 cells (the mother line having served for obtaining the U937-HGH lines) subjected to different inductors including -TNF or -TNF and cycloheximide (inhibitor of protein synthesis).
FIG. 2: The effect of growth hormone on the translocation of NF-κB; column 1 corresponds to the control cells U937, column 2 corresponds to the U937 cells treated with -TNF+cycloheximide, column 3 corresponds to the U937 cells treated with -TNF, column 4 corresponds to the U937 cells treated with -TNF+a mutant NF-κB probe, column 5 corresponds to the U937 cells treated with -TNF +a homologous NF-κB probe, column 6 corresponds to the control cells U937-HGH, column 7 corresponds to the U937-HGH cells treated with -TNF+cycloheximide, column 8 corresponds to the U937-HGH cells treated with -TNF; the presence of NF-κB is indicated by an arrow.

NF-κB [5] = assay: NF-κB-driven CAT reporter ELISA after -TNF stimulation; type: cell-based, human; settings: U937-HGH versus U937-Neo cells
Method: The cells are transfected by electroporation then incubated with -TNF. At the end of culturing, the cells are lysated and the activated CAT is measured by an commercial ELISA (Boehringer-Mannheim), according to the directions of the supplier.
FIG. 3: Effect of growth hormone on the reporter activity CAT; the percentage of variation of CAT activity is indicated on the abscissa; the two left columns show the two experiments carried out on U937-Neo cells, and the two right columns represent the two independent experiments carried out on U937-HGH cells.

[6] = system: U937-HGH and U937-Neo cells; assay: Death mediated by daunomycin in U937-HGH versus control line (IP+ cells); type: cell-based, human
Excerpt: FIG. 4: Effect of growth hormone on apoptosis induced by daunomycin; the percentage of the dead cells (IP+) is indicated on the ordinate, the white columns corresponding to the cells of the strain U937-Neo, the black columns corresponding to the cells of the strain U937-HGH; the indicated percentages show the increase of mortality of the cells; the concentrations of daunomycin are indicated on the abscissa in μM.

human monocytes = assay: Death of human monocytes after engagement of APO1/CD95/Fas; type: cell-based
NF-κB [7] = settings: human monocytes, exogenous recombinant HGH; cited from earlier work

Molecule	toxic effect of daunomycin on IGROV/ADR cells ([1]; HGH 0 ng/ml)	numbers of living cells ([2]; Experiment 1, RCC-EPO cells, daunomycin 0.3 μM)	numbers of living cells ([2]; Experiment 1, RCC-EPO cells, daunomycin 0.6 μM)	numbers of living cells ([2]; Experiment 1, RCC-Neo cells, daunomycin 0.3 μM)	numbers of living cells ([2]; Experiment 1, RCC-Neo cells, daunomycin 0.6 μM)	numbers of living cells ([2]; Experiment 2, RCC-EPO cells, daunomycin 0.3 μM)	numbers of living cells ([2]; Experiment 2, RCC-EPO cells, daunomycin 0.6 μM)	numbers of living cells ([2]; Experiment 2, RCC-Neo cells, daunomycin 0.3 μM)	numbers of living cells ([2]; Experiment 2, RCC-Neo cells, daunomycin 0.6 μM)	effect of HGH on death mediated by -TNF [3]	presence of NF-κB in the nuclei (NF-κB [4])	CAT activity, reflected by the presence of NF-κB (NF-κB [5])	sensitivity to death mediated by daunomycin [6]	dose of HGH giving maximum effect ([1]; lowest dose of HGH used, sensitisation to daunomycin) [ng/mL]	effect of recombinant HGH on sensitivity of IGROV/ADR cells to daunomycin ([1]; recombinant HGH (Saizen) added to culture)	death mediated through the molecule Fas (human monocytes)	synthesis of proto-oncogene Bc1-2 (human monocytes)	activation of NF-κB after stimulation by LPS (NF-κB [7])
COc1cccc2c1C(=O)c1c(O)c3c(c(O)c1C2=O)C[C@@](O)(C(C)=O)C[C@@H]3O[C@H]1C[C@H](N)[C@H](O)[C@H](C)O1 [daunomycin]	insensitive to the toxic effect	3487	8551	11382	10179	2693	4739	8891	7001									
B1										accelerates the death of these cells; also recorded: increases their susceptibility to the induction of death	decreased relative to the control cells	decreased in the U937-HGH cells relative to the control cells	more sensitive than the control line	5	renders these cells sensitive to daunomycin	decreases the death	increasing the synthesis	inhibits the activation of NF-κB
